# How the values were obtained:
# [1] = Serum high density lipoprotein (HDL) cholesterol alteration by the compound at 50 mg/kg/day dose in normocholesterolemic Male S.E.A. Japanese quail with 5-7 weeks of age; format: functional, Coturnix
# [2] = Serum lipoprotein (VLDL+LDL) cholesterol alteration by the compound at 50 mg/kg/day dose in normocholesterolemic Male S.E.A. Japanese quail with 5-7 weeks of age; format: functional, Coturnix
# [3] = Total Serum lipoprotein cholesterol alteration by the compound at 50 mg/kg/day dose in normocholesterolemic Male S.E.A. Japanese quail with 5-7 weeks of age
SMILES,T/C [1],T/C [2],T/C [3]
COc1c2occc2c(OC)c2c(=O)cc(CSC)oc12 [TIMEFURONE],1.68,0.47,1.36
COc1c2occc2cc2c(=O)cc(C)oc12,1.19,0.77,1.09
Cc1cc(=O)c2cc3ccoc3cc2o1,1.05,0.84,1.01
COc1c2occc2c(OC)c2c(=O)cc(CN(C)C)oc12,0.92,0.37,0.82
COc1c2c(c(OC)c3occc13)OC(C)CC2=O (stereo unspecified),1.45,0.55,1.24
COc1c2ccoc2cc2oc(C)cc(=O)c12 [VISNAGIN],1.42,0.51,1.21
COc1c2occc2c(OC)c2c(=O)ccoc12,1.36,0.42,1.15
COc1c2occc2c(OC)c2c(=O)cc(C(C)C)oc12,1.4,0.49,1.17
COCc1cc(=O)c2c(OC)c3ccoc3c(OC)c2o1,1.63,0.57,1.35
COc1c2c(c(OC)c3c(=O)cc(C)oc13)CCO2,1.17,0.74,1.07
COc1c2occc2c(OC)c2c(=O)cc(C)oc12 [KHELLIN],1.46,0.37,1.21
COc1c2occc2c(OC)c2c(=O)cc(CSc3ccccc3)oc12,1.33,0.43,1.09

# — ChEMBL document CHEMBL1122404, “Khellin analogues. 1. General topological requirements for lipid-altering activity in furochromones” (1983)
